These compounds were tested against CCR2 (Homo sapiens (Human), UniProt P41597) (assay: MCP-1 Receptor Binding Assay in THP-1 Cells). Details: 0.5 nM 125I labeled MCP-1, 2 hours at 30° C., read-out: Inhibition of MCP-1 Binding IC50 MCP1B.
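Also: THP-1 is a human monocytic cell line, and nonspecific binding was defined with 1 µM unlabeled MCP-1.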

CCR2, sequence (P41597 whole entry): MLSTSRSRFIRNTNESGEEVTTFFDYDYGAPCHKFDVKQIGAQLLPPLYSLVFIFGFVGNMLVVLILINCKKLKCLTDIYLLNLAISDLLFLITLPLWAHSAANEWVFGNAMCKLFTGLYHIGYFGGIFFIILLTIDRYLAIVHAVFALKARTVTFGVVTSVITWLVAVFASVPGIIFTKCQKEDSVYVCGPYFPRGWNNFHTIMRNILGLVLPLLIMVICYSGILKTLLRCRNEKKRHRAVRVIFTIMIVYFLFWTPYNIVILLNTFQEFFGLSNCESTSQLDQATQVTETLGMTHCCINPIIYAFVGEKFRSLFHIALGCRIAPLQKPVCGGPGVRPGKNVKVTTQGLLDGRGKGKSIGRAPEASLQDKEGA

Compound | IC50
CCC(O)(CC)[C@H]1CC[C@@H](N2CC(NC(=O)CNc3ncnc4ccc(C(F)(F)F)cc34)C2)CC1 [Example 30, N-(1-((1s,4s)-4-(3-hydroxypentan-3-yl)cyclohexyl)azetidin-3-yl)-2-((6-(trifluoromethyl)quinazolin-4-yl)amino)acetamide] | 209 nM
C=CCC(O)(CC=C)[C@H]1CC[C@@H](N2CC(NC(=O)CNc3ncnc4ccc(C(F)(F)F)cc34)C2)CC1 [Example 31, N-(1-((1s,4s)-4-(4-hydroxyhepta-1,6-dien-4-yl)cyclohexyl)azetidin-3-yl)-2-((6-(trifluoromethyl)quinazolin-4-yl)amino)acetamide] | 300 nM
CCCC(O)(CCC)[C@H]1CC[C@@H](N2CC(NC(=O)CNc3ncnc4ccc(C(F)(F)F)cc34)C2)CC1 [Example 32, N-(1-((1s,4s)-4-(4-hydroxyheptan-4-yl)cyclohexyl)azetidin-3-yl)-2-((6-(trifluoromethyl)quinazolin-4-yl)amino)acetamide] | 690 nM
O=C(CNc1ncnc2ccc(C(F)(F)F)cc12)NC1CN([C@H]2CC[C@@H](C3CCCC3)CC2)C1 [Example 33, N-(1-((1s,4s)-4-cyclopentylcyclohexyl)azetidin-3-yl)-2-((6-(trifluoromethyl)quinazolin-4-yl)amino)acetamide] | 140 nM
O=C(CNc1ncnc2ccc(C(F)(F)F)cc12)NC1CN([C@H]2CC[C@@H](C(O)C(F)(F)C(F)(F)C(F)(F)F)CC2)C1 (stereo partly drawn) [Example 35, N-(1-((1R,4s)-4-(2,2,3,3,4,4,4-heptafluoro-1-hydroxybutyl)cyclohexyl)azetidin-3-yl)-2-((6-(trifluoromethyl)quinazolin-4-yl)amino)acetamide] | 270 nM
CC(C)[C@]1(O)CC[C@H](N2CC(NC(=O)CNc3ncnc4ccc(C(F)(F)F)cc34)C2)CC1 [Example 37, N-(1-((1r,4r)-4-hydroxy-4-isopropylcyclohexyl)azetidin-3-yl)-2-((6-(trifluoromethyl)quinazolin-4-yl)amino)acetamide] | 235 nM
O=C(CNc1ncnc2ccc(C(F)(F)F)cc12)NC1CN([C@H]2CC[C@@H](C3CCOCC3)CC2)C1 [Example 38, N-(1-((1s,4s)-4-(tetrahydro-2H-pyran-4-yl)cyclohexyl)azetidin-3-yl)-2-((6-(trifluoromethyl)quinazolin-4-yl)amino)acetamide] | 160 nM
CN1C(=O)CCC1[C@H]1CC[C@@H](N2CC(NC(=O)CNc3ncnc4ccc(C(F)(F)F)cc34)C2)CC1 (stereo partly drawn) [Example 39, N-(1-((1S,4s)-4-(1-methyl-5-oxopyrrolidin-2-yl)cyclohexyl)azetidin-3-yl)-2-((6-(trifluoromethyl)quinazolin-4-yl)amino)acetamide] | 231 nM
CC(=O)N[C@H]1CC[C@@H](N2CC(NC(=O)CNc3ncnc4ccc(C(F)(F)F)cc34)C2)CC1 [Example 41, N-(1-((1s,4s)-4-acetamidocyclohexyl)azetidin-3-yl)-2-((6-(trifluoromethyl)quinazolin-4-yl)amino)acetamide] | 670 nM
CN(C(=O)OCc1ccccc1)[C@H]1CC[C@@H](N2CC(NC(=O)CNc3ncnc4ccc(C(F)(F)F)cc34)C2)CC1 [Example 42] | 210 nM
CC(C)C(=O)N(C)[C@H]1CC[C@@H](N2CC(NC(=O)CNc3ncnc4ccc(C(F)(F)F)cc34)C2)CC1 [Example 43] | 510 nM
CC(=O)N(C)[C@H]1CC[C@@H](N2CC(NC(=O)CNc3ncnc4ccc(C(F)(F)F)cc34)C2)CC1 [Example 44] | 520 nM
CCC(=O)N(C)[C@H]1CC[C@@H](N2CC(NC(=O)CNc3ncnc4ccc(C(F)(F)F)cc34)C2)CC1 [Example 45, N-Methyl-N-((1s,4s)-4-(3-(2-((6-(trifluoromethyl)quinazolin-4-yl)amino)acetamido)azetidin-1-yl)cyclohexyl)propionamide] | 390 nM
CCCC(=O)N(C)[C@H]1CC[C@@H](N2CC(NC(=O)CNc3ncnc4ccc(C(F)(F)F)cc34)C2)CC1 [Example 46, N-methyl-N-((1s,4s)-4-(3-(2-((6-(trifluoromethyl)quinazolin-4-yl)amino)acetamido)azetidin-1-yl)cyclohexyl)butyramide] | 810 nM
CCN(C(=O)OCc1ccccc1)[C@H]1CC[C@@H](N2CC(NC(=O)CNc3ncnc4ccc(C(F)(F)F)cc34)C2)CC1 [Example 47, Benzyl ethyl((1s,4s)-4-(3-(2-((6-(trifluoromethyl)quinazolin-4-yl)amino)acetamido)azetidin-1-yl)cyclohexyl)carbamate] | 160 nM
CCCN(C(=O)OCc1ccccc1)[C@H]1CC[C@@H](N2CC(NC(=O)CNc3ncnc4ccc(C(F)(F)F)cc34)C2)CC1 [Example 48, benzyl propyl((1s,4s)-4-(3-(2-((6-(trifluoromethyl)quinazolin-4-yl)amino)acetamido)azetidin-1-yl)cyclohexyl)carbamate] | 300 nM
CN([C@H]1CC[C@@H](N2CC(NC(=O)CNc3ncnc4ccc(C(F)(F)F)cc34)C2)CC1)S(C)(=O)=O [Example 49, N-(1-((1s,4s)-4-(N-methylmethylsulfonamido)cyclohexyl)azetidin-3-yl)-2-((6-(trifluoromethyl)quinazolin-4-yl)amino)acetamide] | 950 nM
CCN(C(C)=O)[C@H]1CC[C@@H](N2CC(NC(=O)CNc3ncnc4ccc(C(F)(F)F)cc34)C2)CC1 [Example 50] | 810 nM
O=C(CNc1ncnc2ccc(C(F)(F)F)cc12)NC1CN([C@H]2CC[C@@H](N3CCCO3)CC2)C1 [Example 53, N-(1-((1s,4s)-4-(isoxazolidin-2-yl)cyclohexyl)azetidin-3-yl)-2-((6-(trifluoromethyl)quinazolin-4-yl)amino)acetamide] | 350 nM
O=C(CNc1ncnc2ccc(C(F)(F)F)cc12)NC1CN([C@H]2CC[C@@H](CN3CCCCC3=O)CC2)C1 [Example 54, N-(1-((1s,4s)-4-((2-oxopiperidin-1-yl)methyl)cyclohexyl)azetidin-3-yl)-2-((6-(trifluoromethyl)quinazolin-4-yl)amino)acetamide] | 720 nM
O=C(CNc1ncnc2ccc(C(F)(F)F)cc12)NC1CN([C@H]2CC[C@@H](N3CCCCC3=O)CC2)C1 [Example 56, N-(1-((1s,4s)-4-(2-oxopiperidin-1-yl)cyclohexyl)azetidin-3-yl)-2-((6-(trifluoromethyl)quinazolin-4-yl)amino)acetamide] | 550 nM
O=C(CNc1ncnc2ccc(C(F)(F)F)cc12)NC1CN([C@H]2CC[C@@H](N3C(=O)CCC3=O)CC2)C1 [Example 57, N-(1-((1s,4s)-4-(2,5-dioxopyrrolidin-1-yl)cyclohexyl)azetidin-3-yl)-2-((6-(trifluoromethyl)quinazolin-4-yl)amino)acetamide] | 280 nM

The next compounds have a lower IC50 than those just listed; values first:

IC50 | Compound
28 nM | O=C(CNc1cc(C(F)(F)F)nc2ccc(C(F)(F)F)cc12)NC1CN([C@H]2CC[C@@](O)(c3nccs3)CC2)C1 [Example 24, 2-((2,6-bis(trifluoromethyl)quinolin-4-yl)amino)-N-(1((1r-4r)-4-hydroxy-4-(thiazol-2-yl)cyclohexyl)azetidin-3-yl)acetamide]
99 nM | CCC(O)[C@H]1CC[C@@H](N2CC(NC(=O)CNc3cc(C(F)(F)F)nc4ccc(C(F)(F)F)cc34)C2)CC1 (stereo partly drawn) [Example 25, 2-((2,6-bis(trifluoromethyl)quinolin-4-yl)amino)-N-(1((-1R,4s)-4-(1-hydroxypropyl)cyclohexyl)azetidin-3-yl)acetamide]
17 nM | O=C(CNc1ccnc2ccc(C(F)(F)F)cc12)NC1CN([C@H]2CC[C@@](O)(c3nccs3)CC2)C1 [Example 27]
23 nM | O=C(CNc1ncnc2ccc(C(F)(F)F)cc12)NC1CN([C@H]2CC[C@@H](C3(O)CC=CC3)CC2)C1 [Example 28]
33 nM | CC(C)(O)[C@H]1CC[C@@H](N2CC(NC(=O)CNc3ncnc4ccc(C(F)(F)F)cc34)C2)CC1 [Example 29, N-(1-((1s,4s)-4-(2-hydroxypropan-2-yl)cyclohexyl)azetidin-3-yl)-2-((6-(trifluoromethyl)quinazolin-4-yl)amino)acetamide]
73 nM | O=C(CNc1ncnc2ccc(C(F)(F)F)cc12)NC1CN([C@H]2CC[C@@H](C(O)C(F)(F)F)CC2)C1 (stereo partly drawn) [Example 34, N-(1-((1R,4s)-4-(2,2,2-trifluoro-1-hydroxyethyl)cyclohexyl)azetidin-3-yl)-2-((6-(trifluoromethyl)quinazolin-4-yl)amino)acetamide]
75 nM | C=C(C)[C@H]1CC[C@@H](N2CC(NC(=O)CNc3ncnc4ccc(C(F)(F)F)cc34)C2)CC1 [Example 36, N-(1-((1s,4s)-4-(prop-1-en-2-yl)cyclohexyl)azetidin-3-yl)-2-((6-(trifluoromethyl)quinazolin-4-yl)amino)acetamide]
78 nM | O=C(CNc1ncnc2ccc(C(F)(F)F)cc12)NC1CN(C2CCC(N3CCCC3=O)CC2)C1 (stereo not drawn) [Example 40, N-(1-(4-(2-oxopyrrolidin-1-yl)cyclohexyl)azetidin-3-yl)-2-((6-(trifluoromethyl)quinazolin-4-yl)amino)acetamide]
37 nM | CCCN(C=O)[C@H]1CC[C@@H](N2CC(NC(=O)CNc3ncnc4ccc(C(F)(F)F)cc34)C2)CC1 [Example 51, N-(1-((1s,4s)-4-(N-propylformamido)cyclohexyl)azetidin-3-yl)-2-((6-(trifluoromethyl)quinazolin-4-yl)amino)acetamide]
64 nM | O=C(CNc1ncnc2ccc(C(F)(F)F)cc12)NC1CN([C@H]2CC[C@@H](N3CCCCO3)CC2)C1 [Example 52, N-(1-((1s,4s)-4-(1,2-oxazinan-2-yl)cyclohexyl)azetidin-3-yl)-2-((6-(trifluoromethyl)quinazolin-4-yl)amino)acetamide]
15 nM | O=C(CNc1ncnc2ccc(C(F)(F)F)cc12)NC1CN([C@H]2CC[C@@H](n3ccccc3=O)CC2)C1 [Example 55, N-(1-((1s,4s)-4-(2-oxopyridin-1-(2H)-yl)cyclohexyl)azetidin-3-yl)-2-((6-(trifluoromethyl)quinazolin-4-yl)amino)acetamide]

— US9062048B2, “Cyclohexyl-azetidinyl antagonists of CCR2” (Janssen Pharmaceutica NV, priority 2010, dated 2015)
